According to the supplement of paper PMC12370961:

Assays:
Assay in all cases: differential drug sensitivity score (dDSS) relative to sarcoma reference cohort mean DSS (DSS units (0-100 scale difference)); higher = more selective sensitivity than reference sarcomas
Details in all cases: exposure time: 72 h; concentration range: 10-10000 nM
[1] = system: CDS-ZH001-2 (patient-derived CIC-DUX4 sarcoma tumoroid)
Experimental: (§1)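 Drug response profiling of patient-derived Ewing sarcoma and CIC::DUX4 sarcoma tumoroid models (or cells tested directly after isolation from the tumor, 'direct'). The DSS is the normalised AUC (0-100); dDSS is the sample DSS minus the mean DSS of a 34-sarcoma reference cohort profiled in the same lab.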

[2] = system: CDS-ZH001 (patient-derived CIC-DUX4 sarcoma tumoroid)
Experimental: as §1

[3] = system: CDS-ZH002 direct (CIC-DUX4 sarcoma cells right after isolation)
Experimental: as §1

[4] = system: CDS-ZH002 (patient-derived CIC-DUX4 sarcoma tumoroid)
Experimental: as §1

[5] = system: CDS-ZH003 (patient-derived CIC-DUX4 sarcoma tumoroid)
Experimental: as §1

[6] = system: ES-ZH001 (patient-derived Ewing sarcoma tumoroid)
Experimental: as §1

[7] = system: ES-ZH002 (patient-derived Ewing sarcoma tumoroid)
Experimental: as §1

[8] = system: ES-ZH004 (patient-derived Ewing sarcoma tumoroid)
Experimental: as §1

[9] = system: ES-ZH007 (patient-derived Ewing sarcoma tumoroid)
Experimental: as §1

[10] = system: ES-ZH008 (patient-derived Ewing sarcoma tumoroid)
Experimental: as §1

[11] = system: ES-ZH009 (patient-derived Ewing sarcoma tumoroid)
Experimental: as §1

[12] = system: ES-ZH016 direct (Ewing sarcoma cells right after isolation)
Experimental: as §1

[13] = system: ES-ZH016 (patient-derived Ewing sarcoma tumoroid)
Experimental: as §1

SMILES	differential drug sensitivity score [1]	differential drug sensitivity score [2]	differential drug sensitivity score [3]	differential drug sensitivity score [4]	differential drug sensitivity score [5]	differential drug sensitivity score [6]	differential drug sensitivity score [7]	differential drug sensitivity score [8]	differential drug sensitivity score [9]	differential drug sensitivity score [10]	differential drug sensitivity score [11]	differential drug sensitivity score [12]	differential drug sensitivity score [13]
COc1ncc(-c2ccc3nccc(-c4ccnnc4)c3c2)cc1NS(=O)(=O)c1ccc(F)cc1F [Omipalisib]	8.8	6.3	-3.7	-4.5	5.6	-3.7	12.8	0.9	6.3	11.4	9	2.7	2
CC(C)c1cc(C(=O)N2Cc3ccc(CN4CCN(C)CC4)cc3C2)c(O)cc1O [Onalespib]	0.4	-3.5	-2.7	-6.3	-1.5	3.6	9.5	-1.2	-3	7.7	4.9	6.1	-3.1
O=C(O)C(=O)O.[NH-][C@@H]1CCCC[C@H]1[NH-].[Pt+2] [Oxaliplatin]	5.9	2.2	7.7	5.9	-4.8	-0.1	-2	0.2	1	2.9	-5	-5	1.2
Nc1ncc(-c2nc(N3CCOCC3)nc(N3CCOCC3)n2)c(C(F)F)n1 [PQR514]	7	3.9	-2.6	-6.5	-0.5	-3.3	15.5	0.8	-1.3	10.1	7.1	5.4	5
Nc1cc(C(F)F)c(-c2nc(N3C4CCC3COC4)nc(N3C4CCC3COC4)n2)cn1 [PQR620]	0.8	1.5	-3.3	-3.2	5	0.1	10.2	5.3	2	4.4	2.8	-3.2	-0.4
C=CC(=O)N1CCN(CCCn2c(=O)c(-c3c(Cl)c(OC)cc(OC)c3Cl)cc3cnc(NC)nc32)CC1 [PRN1371]	-3.3	-9.1	-4.8	-10.8	-11.5	11.9	15.7	15.6	5.7	21.1	-0.7	11.1	2.4
CC(=O)O[C@H]1C(=O)[C@@]2(C)[C@H]([C@H](OC(=O)c3ccccc3)[C@]3(O)C[C@H](OC(=O)[C@H](O)[C@@H](NC(=O)c4ccccc4)c4ccccc4)C(C)=C1C3(C)C)[C@]1(OC(C)=O)CO[C@@H]1C[C@@H]2O [Paclitaxel]	4.1	7.6	-5.6	-2.2	-8	24.6	23	8.9	16.2	15.7	19.6	14	16.3
CC(=O)c1c(C)c2cnc(Nc3ccc(N4CCNCC4)cn3)nc2n(C2CCCC2)c1=O [Palbociclib]	10.4	6.1	-0.3	1	-1.6	-2.5	11.4	2.4	6.9	5.8	2.9	-7.7	0
Cc1[nH]c2ccccc2c1CCNCc1ccc(/C=C/C(=O)NO)cc1 [Panobinostat]	4.9	-2.7	2	-1.1	-3.6	3.6	4	5.4	6.3	6.6	10.3	7.4	6.6
Cc1ccc(Nc2nccc(N(C)c3ccc4c(C)n(C)nc4c3)n2)cc1S(N)(=O)=O [Pazopanib]	14.6	-2.9	-1.4	0.6	0.4	-2.9	-2.9	-2.9	-2.9	-2.9	-2.9	17.4	-0.7
NS(=O)(=O)OC[C@@H]1C[C@@H](n2ccc3c(N[C@H]4CCc5ccccc54)ncnc32)C[C@@H]1O [Pevonedistat]	-2.1	8.7	7.6	-1.6	0.7	11.4	9.3	2.4	3.6	5.9	2.9	1.9	8.3
FC(F)(F)c1ccc(CNc2ccc(Cc3c[nH]c4ncc(Cl)cc34)cn2)cn1 [Pexidartinib]	0.5	-1.5	5.7	-1.5	-1.3	-1.5	-1.3	0	-1.5	-0.7	-0.8	3.5	0.7
O=c1[nH]c2ccccc2n1C1CCN(CCCC(c2ccc(F)cc2)c2ccc(F)cc2)CC1 [Pimozide]	6.3	3.4	-2.1	0.9	5.1	-4.3	-2.4	-3.1	-2.3	-3.6	7.1	7.3	5.5
Nc1cccc2c1C(=O)N(C1CCC(=O)NC1=O)C2=O (stereo not given) [Pomalidomide]	-1.4	-0.6	-1.4	-1.4	-1.3	-1.1	6.4	0.4	-1.2	3	-1.3	-1.2	-1.4
Cc1ccc(C(=O)Nc2ccc(CN3CCN(C)CC3)c(C(F)(F)F)c2)cc1C#Cc1cnc2cccnn12 [Ponatinib]	-3.9	-6.2	-3.1	-3.6	-0.9	5.6	10	0.5	-2.6	3.2	0.2	7.8	-3.6
C[C@]12C=CC(=O)C=C1CC[C@@H]1[C@@H]2C(=O)C[C@@]2(C)[C@H]1CC[C@]2(O)C(=O)CO [Prednisone]	-0.5	-0.5	-0.5	-0.5	-0.5	-0.5	-0.5	-0.5	-0.5	-0.5	-0.5	-0.5	-0.5
CC(C)(C)c1cc(NC(=O)Nc2ccc(-c3cn4c(n3)sc3cc(OCCN5CCOCC5)ccc34)cc2)no1 [Quizartinib]	13.2	-2.8	8.3	-2.9	-3.2	-1.7	1.6	-0.8	2.4	0.6	3.6	9.4	-0.6
Cn1c(Nc2ccc(C(F)(F)F)cc2)nc2cc(Oc3ccnc(-c4ncc(C(F)(F)F)[nH]4)c3)ccc21 [RAF-265]	0.9	-2.9	3	-6.1	-2.8	5.1	6.1	-2.3	-0.7	5.2	9.3	6.4	1
O=C(NCc1cccc(O)c1)Nc1nc(-c2ccncc2)cs1 [RKI1447]	-1	-0.6	-1.2	-1	-0.9	-1.2	6.9	-0.2	-1.1	-1.2	4.8	-1	0.4
Cc1cnc(NC(=O)Nc2cc(Br)c(C)cc2OC[C@@H]2CNCCO2)cn1 [Rabusertib]	7.2	8.8	2.4	1.8	-4.9	6	10.7	1.2	8.8	12.5	6.1	5.6	8.7
Cn1nccc1Nc1nccc(-c2ccn([C@H](CO)c3ccc(Cl)c(F)c3)c(=O)c2)n1 [Ravoxertinib]	-3.7	-5	-2.3	-5	-5	-5	-0.4	-5	-0.3	-5	1.2	-5	-2
CNC(=O)c1cc(Oc2ccc(NC(=O)Nc3ccc(Cl)c(C(F)(F)F)c3)c(F)c2)ccn1 [Regorafenib Monohydrate]	-2.3	1.3	1.5	-3	-3.4	11.6	13.6	5.5	0.4	8.9	5.8	1.8	-1.1
CNC(=O)c1cc(Oc2ccc(NC(=O)Nc3ccc(Cl)c(C(F)(F)F)c3)c(F)c2)ccn1 [Regorafenib]	-2	-2	-0.6	-2	2.7	-2	-1.1	0.8	-2	-2	-0.4	-2	-2
C[C@H]1CNC(=O)c2cnn3ccc(nc23)N[C@H](C)c2cc(F)ccc2O1 [Repotrectinib]	6.2	-0.3	0.2	-0.4	-1.4	0.2	5	2.9	-1.3	10.8	1.8	7.7	2.1
Oc1ccc(/C=C/c2cc(O)cc(O)c2)cc1 [Resveratrol]	0	1.4	0.1	-2	-4.6	11.6	16.5	10.1	0.9	13.8	7	4.7	4.4
CN(C)C(=O)c1cc2cnc(Nc3ccc(N4CCNCC4)cn3)nc2n1C1CCCC1 [Ribociclib]	-2.1	-2.1	-2	-2.3	-0.8	2.6	8	4.2	4.1	3.5	1.9	-3	0.4
CNCc1ccc(-c2[nH]c3cc(F)cc4c3c2CCNC4=O)cc1 [Rucaparib]	7.1	-4	-0.8	-4	-4.1	6.7	17.9	5.6	4.3	11.5	1.4	21	4.9
N#CC[C@H](C1CCCC1)n1cc(-c2ncnc3[nH]ccc23)cn1 [Ruxolitinib]	-0.1	0.9	-0.8	-0.6	1.3	-0.8	-0.8	-0.8	-0.8	-0.8	4.4	2.7	1.7
CN1CCC(CNc2ccc3ncc(-c4cccc(OC(F)(F)F)c4)n3n2)CC1 [SGI1776]	3.7	3.5	-0.4	0.1	4.4	0.3	6.6	1.6	0.5	2.1	0.3	-0.3	0.8
CCc1c2c(nc3ccc(O)cc13)-c1cc3c(c(=O)n1C2)COC(=O)[C@]3(O)CC [SN-38]	5.2	7	-0.9	-1	-1.4	13.2	15.3	14.9	17.1	8.8	15.7	4.9	16.4
